Results published in paper PMC13224100, “Esterase-Responsive Mitochondria-Targeted Hydropersulfide Donors Mitigate Doxorubicin Cardiotoxicity While Preserving Anticancer Activity” (Angewandte Chemie (International ed. in English), 2025).
Values belong to the molecule of their own block, whether it stands above or below them.

Assays:
[1] = Cytoprotection against DOX-induced toxicity, CCK-8 assay; format: cell-based; conditions: rat, H9c2 cells; DOX 5 μM, 24 h, CCK-8; read-out: cell viability, DOX alone
Procedure: (§1) We evaluated the cytoprotective effects of RSSH precursors against DOX-induced cardiotoxicity in H9c2 cardiomyoblasts. First, we assessed the cytotoxicity of the RSSH donors (AST-2, APT-1, AST-2-TPP, and APT-1-TPP) using the CCK-8 assay.[24] […] To evaluate cytoprotection, H9c2 cells were pretreated with RSSH donors for 4 h, followed by 24 h co-treatment with DOX (5 μM). As expected, DOX alone reduced cell viability to ca. 50% (Figure 4a). […] Although both compounds were protective, no enhancement of potency was observed upon TPP conjugation. […] A distinctive feature of our study is the direct comparison between mitochondria-targeted and non-targeted RSSH donors. […] TPP conjugation only modestly enhances the cytoprotective effects of RSSH donors under our experimental conditions. This outcome may reflect the intrinsic high efficacy of non-targeted RSSH donors, thereby limiting the additional benefit of mitochondrial targeting.
(§2) Figure 4. Protective effects of RSSH donors against DOX-induced cytotoxicity in H9c2 cells. Cells were pretreated with RSSH donors for 4 h, followed by exposure to DOX (5 μM) for an additional 24 h. Cell viability was assessed using the cell counting Kit-8 (CCK-8) assay. Results are expressed as mean ± SEM, n = 3; *P < 0.05, **P < 0.01, ***P < 0.001, ****P < 0.0001. Ctl = vehicle-treated group (0.01% DMSO in medium). […]
(§3) Cytoprotective Effects of RSSH Donors against Doxorubicin Toxicity
(§4) Cytoprotective studies were performed as previously described.[8] Briefly, H9c2 cells, HepG2 cells, MDA-MB-468 cells, and MCF-7 cells were seeded at a density of 7 x 10^3 cells/well. […] Additionally, in the vehicle control group, cells were treated with medium (DMEM with 10% FBS) containing 0.01% DMSO only. The cells were then further incubated for an additional 4 h before being treated with DOX (10 μL/well, with final concentration of 5 μM). After a 24 h co-incubation with DOX, each well was carefully washed three times with PBS (pH 7.4) and 100 μL o f F B S-free medium containing 10% v/v CCK-8 (Dojindo) was added. The plates were then incubated for 1-2 h before measuring absorbance at […]
(§5) The relative % cell viability was calculated as 100 times the ratio of Abs450 (RSSH donor + DOX-exposed) to Abs450 (vehicle, non-DOX-exposed). Each treatment condition was performed in 6 technical replicates per biological replicate, and the experiment was independently repeated three times (n = 3 biological replicates). Data are presented as mean ± SEM. […]

H9c2 cells [2] = assay: Mitochondrial membrane potential (TMRM) under DOX; format: cell-based; conditions: DOX 5 μM, 24 h, TMRM
Procedure: (§6) Figure 6. a) Basal sulfane sulfur (SS) levels in H9c2 cardiomyocyte, MDA-MB-468, MCF-7, and HepG2 cell lines as detected by SSP4 fluorescence. b) Representative images and c) basal levels of mitochondrial membrane potential (MMP) in H9c2 and cancer cells (MDA-MB-468, MCF-7, and HepG2). d) Impact of APT-1 (25 μM) or APT-1-TPP (25 μM) on MMP in DOX (5 μM)-treated (d) H9c2 and e) HepG2 cells. Impact of APT-1 (25 μM) and APT-1-TPP (25 μM) on ATP levels in DOX (5 μM)-treated f) H9c2 and g) HepG2 cells. Results are expressed as mean ± SEM, n = 3–6; *P < 0.05, **P < 0.01, ***P < 0.001, ****P < 0.0001. Significances in (a) and (c) are presented with respect to H9c2 cells.
(§7) We then examined how RSSH donors influence MMP during DOX exposure. As expected, DOX alone induced mitochondrial depolarization in H9c2 cells, reducing MMP to ca. 50% of control (Figure 6d). […] To complement these observations, we quantified intracellular ATP levels as a functional readout of mitochondrial activity. […]
Mitochondrial Membrane Potential Measurements
Mitochondrial membrane potential was measured using Image-iT™ TMRM Reagent (Cat#I34361, Invitrogen, USA) according to the manufacturer's protocols. […]
The cells were incubated for an additional 24 h. After completion of treatment, cells were washed with a warm clear DMEM medium (with 10% FBS) and incubated in culture media containing TMRM (working solution 100 nM) for 30 min at 37 °C. Cells were then washed with a warm clear FBS-free DMEM medium (3 times) before imaging. Images were obtained with Zeiss LSM 800 with AiryScan Confocal (λex = 548 nm, λem = 573 nm). During each experiment, 6 field images were obtained for each experimental group. Images were analyzed using Image J software, and all cells in each image were selected for fluorescence intensity measurement (cell-free space was also measured as blank). H9c2 signal intensity was set to 100% and signal intensity for all the other cell lines was shown as a percentage of that of H9c2.
The experiments were independently repeated three times (n = 3 biological replicates). Data are […]
Figure S24. Representative TMRM images for mitochondrial membrane potential (MMP) in H9c2 and HepG2 cells with APT-1 and APT-1-TPP treatment under DOX stress. Ctl = vehicle (medium with 0.01% […]
(1 picture or pasted object on this page, not shown here)

H9c2 cells [3] = assay: Intracellular ATP levels (CellTiter-Glo) under DOX; format: cell-based; conditions: DOX 5 μM, 24 h
Procedure: as §6, §7
Briefly, H9c2 cells and HepG2 cells were seeded in 96-well white-bottom plate (Alkali Scientific, SKU:TPW9096, TC-treated) at 5000 cells/well. After treatment (Ctrl, 5 μM DOX alone, 4 h pretreatment of 25 μM APT-1 + 24 h cotreatment with 5 μM DOX, and 4 h pretreatment of 25 μM APT-1-TPP + 24 h cotreatment with 5 μM DOX, in clear DMEM medium with 10% FBS), cells were equilibrated at rt for 30 min before CellTiter-Glo® reagent was added to each well. Plates were then placed on an orbital shaker for 2 min and incubated at rt for another 20 min.
Chemiluminescence was measured using Tecan plate reader (SPARK Part No. 30124664 Version 1.7, serial No. 1909010319). Cellular AT P concentration was calculated based on the AT P calibration curve and normalized to cell count. […] Each treatment condition was performed in 6 technical replicates per biological replicate, and the experiment was independently repeated three times (n = 3 biological replicates).
Data are presented as mean ± SEM. […]

H9c2 cells [4] = assay: Cytoprotection against DOX-induced toxicity, CCK-8 assay; format: cell-based; conditions: 4 h pretreatment, then 24 h co-treatment with DOX 5 μM
Procedure: as §1, §2, §3, §4, §5

[5] = Aqueous stability of RSSH precursors in PBS; format: physicochemical; conditions: PBS pH 7.4, 37 °C, over 9 h
Procedure: We synthesized AST-2 as an esterase-sensitive RSSH donor via reaction of N-acetylpenicillamine methyl ester with methoxycarbonyl sulfenyl chloride in dichloromethane at 0 °C, affording the product in 72% yield (see Scheme S1). We first evaluated the aqueous stability of AST-2 in phosphate-buffered saline (PBS, pH 7.4) at 37 °C.
APT-1 was synthesized in 93% overall yield via a one-pot two-step sequence: N-acetylpenicillamine methyl ester was reacted with chlorocarbonylsulfenyl chloride to afford an S-perthiocarbonyl chloride intermediate, which was subsequently treated with 2-acetoxy-N-methylethan-1-aminium chloride in the presence of triethylamine (see Supporting Information).
We first evaluated the aqueous stability of the mitochondria-targeted analogs AST-2-TPP and APT-1-TPP. […] APT-1-TPP similarly retained excellent stability, with < 5% degradation over 41 h (Figure S1D).

ATP level, DOX alone (H9c2 cells [3]): significantly depleted ATP
SMILES: COc1cccc2c1C(=O)c1c(O)c3c(c(O)c1C2=O)C[C@@](O)(C(=O)CO)C[C@@H]3O[C@H]1C[C@H](N)[C@H](O)[C@H](C)O1 [DOX, Doxorubicin]
viability at 24 h, 5 µM [1]: ~50% | MMP, DOX alone (H9c2 cells [2]): ca. 50 % of control

SMILES: COC(=O)[C@@H](NC(C)=O)C(C)(C)S [Pen-SH, N-acetyl penicillamine methyl ester, reference compound]
protection against DOX-induced cytotoxicity (H9c2 cells [4]): failed to mitigate DOX-induced cytotoxicity

decomposition (aqueous stability) [5]: complete degradation
SMILES: COC(=O)C(NC(C)=O)C(C)(C)SSC(=O)Oc1ccccc1 (centres unmarked) [AST-1, reference compound]
